From patent publication US20070148262A1 (priority 2005, published 2007)

How the values were obtained:
Salmonella cholerasuis = test: comparison of antibacterial effects: Green-zone A vs malic acid and grapefruit seed extract; type: cell-based; parameters: key: NBD: No Bacteria Detected; BD: Bacteria Detected; settings: 5% organic matter dilution (yeast extract, hard water)
Experimental: The antibacterial effect of Green-zone A prepared in Example 1 was compared to the effect of each of malic acid and grapefruit seed extract alone.
A bacterial strain used in the test of antibacterial activity was Salmonella cholerasuis. The Salmonella strain was cultured in nutrient medium at 37° C. for 24 hours and used at a concentration of 5×10^8 cells/ml of the nutrient medium.
Green-zone A prepared in Example 1 was undiluted and diluted 2-fold and 5-fold with hard water. Meanwhile, a composition of 50 g malic acid completely dissolved in 200 ml of purified water, and a composition of 6 g grapefruit seed extract completely dissolved in 200 ml of distilled water, were undiluted and diluted 2-fold and 5-fold.
4 ml of the prepared Salmonella strain was mixed with 96 ml of 5% organic matter dilution (4° C., 5% yeast extract, pH 7.0, diluted with hard water). 2.5 ml of the mixture solution was taken and allowed to react at 4° C. for 30 minutes.
After completion of the reaction, 1 ml of the bacterial dilution was added and mixed with 9 ml of neutralizing medium (containing 5% horse serum inactivated in nutrient medium) at 37° C. Then, the mixture was added into test tubes containing 0.1 ml of each of nutrient media, and was proliferated in an incubator at 37° C. for 48 hours.
After completion of the proliferation, the […] was re-inoculated into blood medium and measured for the bactericidal activity of each of the compositions (Table 15).

[1] = tested on: avian influenza viruses (AIV) (field isolate No. 02-8, virus strain K228); type: cell-based

Compound: O=C(O)CC(O)C(=O)O (stereo not shown) [Malic acid, malic acid]
- bactericidal activity (Salmonella cholerasuis; Original solution): NBD
- bactericidal activity (Salmonella cholerasuis; dilution 1:2): BD
- bactericidal activity (Salmonella cholerasuis; dilution 1:5): BD
- disinfectant effects up to dilutions of [1]: no disinfectant effects
